Results published in publication PMC4336331, “Novel Receptor-Derived Cyclopeptides to Treat Heart Failure Caused by Anti-β1-Adrenoceptor Antibodies in a Human-Analogous Rat Model” (PLoS ONE, 2015).
Peptide text beside a SMILES is read from it.

Experiments:
[1] = tested on: anti-β1EC2-induced heart failure (β1EC2/GST-FP-immunised rats); assay: Relative organ wet weights and body weight, prevention-study; settings: month 16, mean ±SEM
Procedure: In brief, n = 76 two months old Lewis/CrlBR rats were either s.c. immunised with 50 μg β1EC2/GST-FP, or n = 38 rats were control-injected with 0.9% NaCl (t = 0). To maintain high anti-β1EC2-titers, all immunised rats were boosted with β1EC2/GST-FP (or 0.9% NaCl) every month over 20 months as previously described. Application of the different linear or cyclic β1-AR peptides (corresponding to the primary AA-sequence of either the first (β1EC1) or the 2nd extra-cellular β1-AR loop (β1EC2)) or the β1-receptor blocker bisoprolol was initiated either 6 weeks after the 1st immunisation (i.e. 15 days after the 1st boost, prevention-study), or 8.5 months after the 1st immunisation (therapy-study).
After the hearts all other relevant inner organs (e.g., lung, liver, spleen, kidneys, brain, and eyes) were removed, rinsed with ice-cold PBS, weighed, sectioned, and fixed for further histologic analysis.

β1-AR mRNA = assay: qRT-PCR of cardiac β1-AR mRNA, therapy-study; type: in vivo, Lewis/CrlBR rats; settings: qRT-PCR normalised to GAPDH (Fig. 4C)
[2] = tested on: anti-β1EC2-induced β1-AR/cAMP signaling in HEKβ1-cells; assay: FRET cAMP assay (Epac1-camps), blockade of anti-β1EC2-induced signals; type: cell-based, human; settings: HEKβ1-cells with Epac1-camps FRET-sensor; IgG pre-incubated with peptide (Fig. 1F)
Procedure: The effects of anti-β1EC2 on β1AR-mediated intracellular cAMP-production were assessed by measuring fluorescence resonance energy transfer (FRET) in HEKβ1-cells transiently transfected with a FRET-sensor for cAMP, Epac1-camps. The sensor consists of the cAMP-binding protein Epac1 flanked by enhanced cyan or yellow fluorescent protein. […] IgG-preparations were added to the cells at 0.13 μg/μl protein concentration; 2μM (-)isoproterenol (Sigma) was used as a reference to determine the maximal cAMP-response. To test the blocking-efficacy of β1EC2-CP on anti-β1EC2-induced adrenergic signaling, the different IgG-preparations were pre-incubated with β1EC2-CP (20 μg/μl) for 6 h at 4 °C; for pharmacological blockade of anti-β1EC2-induced signals we utilised 5.0μM bisoprolol.
(D) Immunostaining experiments with rat anti- β1EC2 (1:100) using HEK-cells stably expressing β1-ARs (HEK β1) or not (wild type; HEK WT). IgG was prepared from anti- β1EC2-positive rats or 0.9% NaCl-injected control rats. Amino-terminal β1AR-specific rabbit anti-bodies (1:250) served as positive controls. […] HEK β1-cells were transfected with the cAMP-sensor Epac1-camps, which reacts to cAMP-binding with a reduction in fluorescence resonance energy transfer (FRET) between its fluorophores cyan (CFP) and yellow fluorescent protein (YFP). […] Representative FRET-ratio traces of 1/5 experiments are shown. Values are given in % of maximal cAMP-response achieved with 0.3μM (-)isoproterenol (Iso).

cardiac β1-ARs = assay: Radioligand binding of cardiac membranes (125I-CYP); type: in vivo, Lewis/CrlBR rats; settings: 125I-cyanopindolol binding to cardiac membranes, CGP20712A competition (Fig. 4A and B)
Procedure: Membranes from apical cardiac tissues from rats of each study-group were prepared as previously described. To determine total β-AR density (Bmax), 35μg membrane protein were incubated (1.5 h, 25°C) in binding buffer with 200pM of the non-selective β-AR antagonist ^125I-cyanopindolol (^125I-CYP; Perkin Elmer Life and Analytical Sciences, Billerica, MA). Non-specific binding was determined with 5μM unlabeled L-propranolol. The proportion of β1- and β2-AR subtypes was estimated from biphasic competition-curves with 10^-10 to 10^-2 M of the unlabeled β1-selective antagonist CGP20712A (Sigma). The reaction was stopped by rapid filtration (Whatman GF/C filters) and washing with ice-cold buffer. Filter-bound radioactivity was measured by γ-counting. Estimates of maximal binding (Bmax) and the proportion of β1- and β2-AR-subtypes were calculated with GraphPad Prism 5.00 (San Diego, CA).
Fig 4 Cardiac adrenergic system and molecular markers. […] Columns ± error bars represent the level of expression of the indicated markers ±SEM in cardiac tissues from the indicated treatment-groups compared to values from 0.9% NaCl-injected rats (controls, set at 100%), as determined by qRT-PCR normalised to GAPDH (one way ANOVA and Dunnett`s post-hoc test; *p<0.05; **p<0.001).

[3] = immunised anti-β1EC2-positive rats, from 6 weeks after 1st immunisation EC2-CP 1.0 mg/kg i.v. every 4 weeks or bisoprolol 15 mg/kg/day orally over 12 months
[4] = non-immunised 0.9% NaCl-injected rats, EC2-CP 1.0 mg/kg i.v. every 4 weeks or bisoprolol 15 mg/kg/day orally over 12 months

## CC(C)[C@@H]1NC(=O)[C@H](Cc2ccccc2)NC(=O)[C@H](CC(=O)O)NC(=O)[C@H](CS)NC(=O)[C@H](CS)NC(=O)[C@H](CCCCN)NC(=O)[C@@H]2CCCN2C(=O)[C@H](CC(=O)O)NC(=O)[C@H](CC(N)=O)NC(=O)[C@H](Cc2ccc(O)cc2)NC(=O)[C@H](CS)NC(=O)[C@H](CCCNC(=N)N)NC(=O)[C@H](CCCNC(=N)N)NC(=O)[C@H](C)NC(=O)[C@H](CCC(=O)O)NC(=O)[C@H](CC(=O)O)NC(=O)[C@H](CO)NC(=O)[C@H](CCC(=O)O)NC(=O)[C@H](C)NC(=O)[C@H](CCCNC(=N)N)NC(=O)[C@H](C)NC(=O)[C@H](CCC(N)=O)NC(=O)CNC(=O)[C@H](CCCNC(=N)N)NC(=O)[C@H](CC(N)=O)NC(=O)[C@H]([C@@H](C)O)NC1=O [β1EC2-CP] (cyclo(AESDEARRCYNDPKCCDFVTNRGQAR))
[1]; [3]
  Heart, relative (wet) weight: 2.46 ± 0.05 mg/g
  Kidney L, relative (wet) weight: 2.71 ± 0.08 mg/g
  Kidney R, relative (wet) weight: 2.79 ± 0.06 mg/g
  Liver, relative (wet) weight: 23.59 ± 0.46 mg/g
  Lung, relative (wet) weight: 2.74 ± 0.14 mg/g
  Spleen, relative (wet) weight: 1.48 ± 0.05 mg/g
  Weight (body weight): 543 ± 24 g
[1]; [4]
  Heart, relative (wet) weight: 2.50 ± 0.06 mg/g
  Kidney L, relative (wet) weight: 2.62 ± 0.08 mg/g
  Kidney R, relative (wet) weight: 2.79 ± 0.01 mg/g
  Liver, relative (wet) weight: 22.51 ± 0.20 mg/g
  Lung, relative (wet) weight: 2.77 ± 0.10 mg/g
  Spleen, relative (wet) weight: 1.58 ± 0.15 mg/g
  Weight (body weight): 553 ± 11 g
β1-AR mRNA
  cardiac β1-AR mRNA-levels, in words: returned to normal levels
[2]
  blockade of anti-β1EC2-induced cAMP-signals, in words: inhibited
Cardiac β1-ARs
  cardiac β1-AR density (downregulation), in words: largely prevented

## CC(C)NCC(O)COc1ccc(COCCOC(C)C)cc1 (stereo not shown) [bisoprolol, reference compound]
[1]; [3]
  Heart, relative (wet) weight: 2.55 ± 0.06 mg/g
  Kidney L, relative (wet) weight: 2.63 ± 0.04 mg/g
  Kidney R, relative (wet) weight: 2.73 ± 0.07 mg/g
  Liver, relative (wet) weight: 22.63 ± 0.46 mg/g
  Lung, relative (wet) weight: 2.74 ± 0.07 mg/g
  Spleen, relative (wet) weight: 1.74 ± 0.05 mg/g
  Weight (body weight): 533 ± 27 g
[1]; [4]
  Heart, relative (wet) weight: 2.50 ± 0.06 mg/g
  Kidney L, relative (wet) weight: 2.79 ± 0.05 mg/g
  Kidney R, relative (wet) weight: 2.90 ± 0.07 mg/g
  Liver, relative (wet) weight: 22.33 ± 0.78 mg/g
  Lung, relative (wet) weight: 2.66 ± 0.22 mg/g
  Spleen, relative (wet) weight: 1.79 ± 0.05 mg/g
  Weight (body weight): 546 ± 8 g
β1-AR mRNA
  cardiac β1-AR mRNA-levels, in words: returned to normal levels
Cardiac β1-ARs
  cardiac β1-AR density (downregulation), in words: small increase

## CC(C)[C@H](NC(=O)[C@H](Cc1ccccc1)NC(=O)[C@H](CC(=O)O)NC(=O)[C@H](CS)NC(=O)[C@H](CS)NC(=O)[C@H](CCCCN)NC(=O)[C@@H]1CCCN1C(=O)[C@H](CC(=O)O)NC(=O)[C@H](CC(N)=O)NC(=O)[C@H](Cc1ccc(O)cc1)NC(=O)[C@H](CS)NC(=O)[C@H](CCCNC(=N)N)NC(=O)[C@H](CCCNC(=N)N)NC(=O)[C@H](C)NC(=O)[C@H](CCC(=O)O)NC(=O)[C@H](CC(=O)O)NC(=O)[C@H](CO)NC(=O)[C@H](CCC(=O)O)NC(=O)[C@H](C)NC(=O)[C@H](CCCNC(=N)N)NC(=O)[C@H](C)N)C(=O)N[C@H](C(=O)N[C@@H](CC(N)=O)C(=O)N[C@@H](CCCNC(=N)N)C(=O)NCC(N)=O)[C@@H](C)O [β1EC2-Lin] (H-ARAESDEARRCYNDPKCCDFVTNRG-NH2; N-terminus and C-terminus assumed)
[2]
  blockade of anti-β1EC2-induced cAMP-signals, in words: inhibited
